# Measured values taken from patent US10137171B2, “Methods of treatment using a pentapeptide derived from the C-Terminus of Glucagon-Like Peptide 1 (GLP-1)” (The General Hospital Corporation, priority 2011, dated 2018).
# “Also recorded” adds a separate entry of the source. Where no end group is shown, it is not given here.
# Legend:
# Format in all cases: in vivo, mouse
# diet-induced obese mice [1] = test: Continuous osmopump infusion in very high-fat diet-induced obese mice: body weight, energy intake, Feed Efficiency
# Protocol: The data encompass twelve weeks, from week 2 to week 14 of continuous infusions of control vehicle and GLP-1(32-36)amide. GLP-1(32-36)amide was administered to mice via mini-osmopumps (Alzet #1004) at a rate of 40 nanomoles/Kg body weight/24 hours. Male C57bl/6j mice were placed on a high fat diet (Research Diets, #D12492, 60 kcal % fat) at six weeks of age and continued for 17 weeks before starting osmopump infusions at age 23 weeks. 1A. Line graph showing time-dependent changes in body weight (BW) over fourteen weeks of infusions of control vehicle and pentapeptide GLP-1(32-36)amide. (*) p<0.05 versus vehicle control; (**) p<0.04 versus vehicle control; (***) p<0.034; (#) p<0.01; (##) p<0.004; (###) p<0.0006, 0.0007; (####) p<0.0001. 1B. N=six mice per group. Values are means+/−SEMs. *p<0.013 peptide vs. vehicle. At week two of infusions of vehicle and pentapeptide the mice weighed 37.2 and 38.2 gms (averages of six mice), respectively. N=six mice per group.
# FIG. 3 is a bar graph showing feed efficiency at the end of 12 week infusion. GLP-1(32-36)amide infusions in diet-induced obese mice lowers the Feed Efficiency index. The data are the means+/−SEMs (*p<0.06 pentapeptide vs. vehicle) of the values calculated from the […] period of infusions of control vehicle and GLP-1(32-36)amide shown in FIG. 4. The Feed efficiency (FE) is a calculation of the body weight (gms) divided by the energy intake kcal) in the food consumed. […] Basal energy expenditure in mice treated with pentapeptide is increased compared to mice treated with control vehicle. N=6 mice per group.
# Male C57bl/6 mice at […] were placed on a very high-fat diet (VHFD, 60% fat, Research Diets) for 17 weeks. At week 17 the mice on the high-fat diet, corresponding to 23 weeks of age, mini-osmopumps containing either vehicle or GLP-1(32-36)amide were implanted subcutaneously for delivery of peptide or vehicle over 16 weeks. Forty nanomoles (20 micrograms) of GLP-1(32-36) was diluted in saline containing 0.1% human serum albumin and were infused at a rate of forty nanomoles/kgBW/day for 16 weeks to achieve an estimated concentration of approximately 100 pM similar to that reported by infusions of GLP-1(7-36)amide. For infusions longer than 4 weeks additional osmopumps with peptide were implanted at the end of each 4 weeks infusion. Body weights were recorded weekly. Food consumption was assessed every 3 to 4 days by weight. Energy intake (kcal/gm BW/week) and Feed Efficiency Index (FEI) were evaluated during the infusions of vehicle or peptide. The latter provides a measure of the efficiency of caloric conversion to body weight and it is calculated by determining the grams of body weight gain per cage/Kcal of food consumed per cage, [21]. There was no observable change in the activities of the mice amongst the various experimental groups. Mouse care was conducted under approval by the MGH Institutional Animal Care Use Committee.
# diet-induced obese mice [2] = test: Fasting plasma glucose and insulin measurements; settings: 16 h fast, after 12 weeks infusion, 29 weeks on VHFD
# Source text: FIGS. 5A-B are a pair of bar graphs showing that GLP-1(32-36)amide attenuates the development of fasting hyperglycemia and hyperinsulinemia in high fat-fed mice. Mice fed the VHFD develop hyperglycemia, hyperinsulinemia, diabetes, and insulin resistance during weeks 15 to 29 of diet-induced obesity (21-35 weeks of age, respectively). A 12-week infusion of either control vehicle or pentapeptide started at 17 weeks on high-fat diet (23 weeks of age). FIG. 5A: Fasting plasma glucose levels *p<0.0004 vehicle vs. GLP-1(32-36)a. FIG. 5B: Fasting insulin levels *p<0.042 vehicle vs. GLP-1(32-36)a. The studies are in mice fed a VHFD for 15 weeks, two weeks before beginning the continuous infusions of either control vehicle or pentapeptide. Continuous infusions of vehicle or pentapeptide GLP-1(32-36)amide were give during weeks 17 to 29 of diet (23 to 35 weeks of age). Weeks denoted on the ordinate scales refers to weeks of age. N=6 mice per group. Values are means+/−SEMs.
# Plasma obtained by tail nick from mice fasted for 16 hrs was assayed for glucose by using the one touch ultra-mini glucometer (Life Scan, Johnson and Johnson company) and for insulin with a rat/mouse Elisa kit (Crystal Chem, Downers Grove, Ill.).
# Fasting immunoreactive insulin levels: whole blood samples were spun in a refrigerated microfuge at 14,000 rpm for 10 minutes and transferred to a clean tube. […]
# diet-induced obese mice [3] = test: Liver triglyceride content
# Protocol: FIGS. 6A-B are bar graphs showing that infusions of GLP-1(32-36)amide in mice prevent the accumulation of triglyceride in the livers of mice fed a very high-diet (VHFD). Triglyceride contents of samples of livers of mice fed a high-fat diet (VHFD) for 32 weeks (age 38 weeks). 6A. Triglyceride levels of pentapeptide-infused obese mice as a percent of the vehicle-infused control mice set at 100%. *p<0.005. 6B. Triglyceride content levels of 60.5+/−12.1 mg/mg protein. Infusion of the pentapeptide lowered the triglyceride content by 65% to 21.1+/−5.6 mg/mg protein, indistinguishable from the values in the livers of lean mice fed low-fat chow (21.6+/−7 mg/mg protein). Data from diet-induced obese mice infused with the nonapeptide, GLP-1(28-36)amide for 16 weeks are also shown. Values are represented as % of vehicle control infused mice fed a high-fat diet (VHFD). *p<0.005, peptide vs. vehicle. N=6 mice per group. Values are means+/−SEMs.
# Representative samples (2-3 gms) of livers were obtained and quick frozen on solid CO2 at the time of sacrifice and necropsy. The samples were subsequently homogenized and triglycerides were extracted and measured using a colorimetric enzymatic assay (Serum Triglyceride Determination kit, Sigma).
substance,measurement,setting,value
"LVKGRamide (LVKGR-NH2) [GLP-1(32-36)amide, pentapeptide derived from the C-terminus of the glucoincretin hormone GLP-1]","average weekly change in body weight gain, less than control vehicle","diet-induced obese mice [1]; VHFD mice, 40 nanomoles/kg BW/day s.c. osmopump, measured over ten weeks (FIG. 1B)",50%
same,body weight at week two of infusions,"diet-induced obese mice [1]; VHFD mice, average of six mice, vehicle 37.2",38.2 gms
same,time at which inhibition of weight gain reached statistical significance,"diet-induced obese mice [1]; VHFD mice, continuous infusion 40 nanomoles/kg BW/day (FIG. 1A)",by week five; also recorded: as early as five weeks
same,energy intake (food intake),"diet-induced obese mice [1]; VHFD mice, ten weeks of infusion, vehicle 1.11±0.025",1.15±0.030 Kcal/g body weight/week
same,Feed Efficiency decrease compared to vehicle,diet-induced obese mice [1]; VHFD obese mice (FIG. 3),approximately 50%
same,Feed Efficiency index (effect in words),"diet-induced obese mice [1]; end of 12 week infusion, p<0.06 vs vehicle (FIG. 3)",lowers
same,body weights decreased compared to vehicle control,"diet-induced obese mice [1]; end of the sixteen week infusion, high fat diet-induced obese mice",50%
same,fasting plasma glucose,diet-induced obese mice [2]; vehicle 8.8 (FIG. 5A),5.5 mM
same,fasting plasma insulin,diet-induced obese mice [2]; vehicle 300 (FIG. 5B),250 pM
same,liver triglyceride as percent of vehicle control set at 100%,diet-induced obese mice [3]; VHFD mice (FIG. 6A),35%
same,liver triglyceride content decrease compared to vehicle,"diet-induced obese mice [3]; VHFD mice, pentapeptide infusion (FIG. 6A, 6B)",65%
same,liver triglyceride content,"diet-induced obese mice [3]; VHFD mice, vehicle 60.5+/-12.1, lean low-fat diet mice 21.6+/-7 (FIG. 6B)",21.1+/−5.6 mg/mg protein
